pIC50: −log10 of the molar value. Values after ≈ are worked out from the molar mass of the structure shown.
Tests used:
[1] = Antitumor activity against human U87 cells xenografted in nude immunodeficient CD1 mouse assessed as mean survival time at 50 mg/kg, po administered every other day (reference value: 30 day); format: functional, U-87MG ATCC
[2] = MRT in BALB/C mouse at 50 mg/kg, ip administered via bolus dose using DMSO formulation measured at 1 to 24 hrs post dose by UV/LC-MS analysis; format: ADME, organism-based; details: in vivo
Mus musculus [3] = experiment: MRT in BALB/C mouse assessed as N-(3-bromophenyl)-1-(2-chloro-2-phenylethyl)-6-(2-morpholinoethylthio)-1H-pyrazolo[3,4-d]pyrimidin-4-amine level at 50 mg/kg administered through oral gavage as methylcellulose formulation measured at 1 to 24 hrs post dose by UV/LC-MS analysis; format: ADME, organism-based; details: in vivo
physchem [4] = details: aqueous
Description: Aqueous solubility of compound at 1 mg after 24 hrs by UV/LC-MS analysis

Mus musculus [5] = experiment: AUC (0 to infinity) in BALB/C mouse assessed as N-(3-bromophenyl)-1-(2-chloro-2-phenylethyl)-6-(2-morpholinoethylthio)-1H-pyrazolo[3,4-d]pyrimidin-4-amine level at 50 mg/kg administered through oral gavage as methylcellulose formulation measured at 1 to 24 hrs post dose by UV/LC-MS analysis; format: ADME, organism-based; design: dose 50 mg/kg, route oral, time infinity; details: in vivo
[6] = Half life in BALB/C mouse at 50 mg/kg, ip administered via bolus dose using DMSO formulation measured at 1 to 24 hrs post dose by UV/LC-MS analysis; format: ADME, organism-based; details: in vivo
Mus musculus [7] = experiment: MRT in BALB/C mouse assessed as N-(3-bromophenyl)-1-(2-chloro-2-phenylethyl)-6-(2-morpholinoethylthio)-1H-pyrazolo[3,4-d]pyrimidin-4-amine level at 50 mg/kg, ip administered via bolus dose using DMSO formulation measured at 1 to 24 hrs post dose by UV/LC-MS analysis; format: ADME, organism-based; details: in vivo
[8] = AUC (0 to 24 hrs) in BALB/C mouse at 50 mg/kg, ip administered via bolus dose using DMSO formulation measured at 1 to 24 hrs post dose by UV/LC-MS analysis; format: ADME, organism-based; design: dose 50 mg/kg, time < 24 hr, route intraperitoneal; details: in vivo
physchem [9] = details: PAMPA
Description: Apparent permeability at 500 uM after 5 hrs by Blood-Brain Barrier-based PAMPA

[10] = Metabolic stability in mouse liver microsomes assessed as unmetabolized compound remaining at 50 uM after 1 hr in presence of NADPH regenerating system by UV/LC-MS analysis; format: ADME, microsome; details: read-out: Stability
[11] = Tmax in BALB/C mouse at 50 mg/kg, ip administered via bolus dose using DMSO formulation measured at 1 to 24 hrs post dose by UV/LC-MS analysis; format: ADME, organism-based; details: in vivo
Kidney = experiment: Drug uptake in BALB/C mouse kidney at 50 mg/kg, ip via bolus administration measured at 24 hrs post dose by UV/LC-MS; format: ADME, organism-based; details: in vivo
Mus musculus [12] = experiment: Tmax in BALB/C mouse assessed as N-(3-bromophenyl)-1-(2-chloro-2-phenylethyl)-6-(2-morpholinoethylthio)-1H-pyrazolo[3,4-d]pyrimidin-4-amine level at 50 mg/kg administered through oral gavage as methylcellulose formulation measured at 1 to 24 hrs post dose by UV/LC-MS analysis; format: ADME, organism-based; details: in vivo
Mus musculus [13] = experiment: Cmax in BALB/C mouse assessed as N-(3-bromophenyl)-1-(2-chloro-2-phenylethyl)-6-(2-morpholinoethylthio)-1H-pyrazolo[3,4-d]pyrimidin-4-amine level at 50 mg/kg administered through oral gavage as methylcellulose formulation measured at 1 to 24 hrs post dose by UV/LC-MS analysis; format: ADME, organism-based; design: dose 50 mg/kg, route oral; details: in vivo
[14] = Cmax in BALB/C mouse at 50 mg/kg, ip administered via bolus dose using DMSO formulation measured at 1 to 24 hrs post dose by UV/LC-MS analysis; format: ADME, organism-based; design: dose 50 mg/kg, route intraperitoneal; details: in vivo
Mus musculus [15] = experiment: Half life in BALB/C mouse assessed as N-(3-bromophenyl)-1-(2-chloro-2-phenylethyl)-6-(2-morpholinoethylthio)-1H-pyrazolo[3,4-d]pyrimidin-4-amine level at 50 mg/kg, ip administered via bolus dose using DMSO formulation measured at 1 to 24 hrs post dose by UV/LC-MS analysis; format: ADME, organism-based; details: in vivo
[16] = AUC (0 to infinity) in BALB/C mouse at 50 mg/kg, ip administered via bolus dose using DMSO formulation measured at 1 to 24 hrs post dose by UV/LC-MS analysis; format: ADME, organism-based; design: dose 50 mg/kg, time infinity, route intraperitoneal; details: in vivo
[17] = Drug uptake in BALB/C mouse adipose tissue at 50 mg/kg, ip via bolus administration measured at 24 hrs post dose by UV/LC-MS; format: ADME, organism-based; details: in vivo
cells [18] = details: Homo sapiens, U-87 MG, 48 h
Description: Cytotoxicity against human U87 cells assessed as reduction in cell viability after 48 hrs by trypan blue assay

Mus musculus [19] = experiment: Half life in BALB/C mouse assessed as N-(3-bromophenyl)-1-(2-chloro-2-phenylethyl)-6-(2-morpholinoethylthio)-1H-pyrazolo[3,4-d]pyrimidin-4-amine level at 50 mg/kg administered through oral gavage as methylcellulose formulation measured at 1 to 24 hrs post dose by UV/LC-MS analysis; format: ADME, organism-based; details: in vivo
Mus musculus [20] = experiment: Cmax in BALB/C mouse assessed as N-(3-bromophenyl)-1-(2-chloro-2-phenylethyl)-6-(2-morpholinoethylthio)-1H-pyrazolo[3,4-d]pyrimidin-4-amine level at 50 mg/kg, ip administered via bolus dose using DMSO formulation measured at 1 to 24 hrs post dose by UV/LC-MS analysis; format: ADME, organism-based; design: dose 50 mg/kg, route intraperitoneal; details: in vivo
Mus musculus [21] = experiment: AUC (0 to 24 hrs) in BALB/C mouse assessed as N-(3-bromophenyl)-1-(2-chloro-2-phenylethyl)-6-(2-morpholinoethylthio)-1H-pyrazolo[3,4-d]pyrimidin-4-amine level at 50 mg/kg, ip administered via bolus dose using DMSO formulation measured at 1 to 24 hrs post dose by UV/LC-MS analysis; format: ADME, organism-based; design: dose 50 mg/kg, time < 24 hr, route intraperitoneal; details: in vivo
Brain = experiment: Drug uptake in BALB/C mouse brain at 50 mg/kg, ip via bolus administration measured at 24 hrs post dose by UV/LC-MS analysis; format: ADME, organism-based; details: in vivo
Mus musculus [22] = experiment: Plasma clearance in BALB/C mouse assessed as N-(3-bromophenyl)-1-(2-chloro-2-phenylethyl)-6-(2-morpholinoethylthio)-1H-pyrazolo[3,4-d]pyrimidin-4-amine level at 50 mg/kg, ip administered via bolus dose using DMSO formulation measured at 1 to 24 hrs post dose by UV/LC-MS analysis; format: ADME, organism-based; details: in vivo
cells [23] = details: Homo sapiens, U-87 MG, 24 h
Description: Cytotoxicity against human U87 cells assessed as reduction in cell viability after 24 hrs by trypan blue assay

Mus musculus [24] = experiment: Tmax in BALB/C mouse assessed as N-(3-bromophenyl)-1-(2-chloro-2-phenylethyl)-6-(2-morpholinoethylthio)-1H-pyrazolo[3,4-d]pyrimidin-4-amine level at 50 mg/kg, ip administered via bolus dose using DMSO formulation measured at 1 to 24 hrs post dose by UV/LC-MS analysis; format: ADME, organism-based; details: in vivo
Mus musculus [25] = experiment: AUC (0 to infinity) in BALB/C mouse assessed as N-(3-bromophenyl)-1-(2-chloro-2-phenylethyl)-6-(2-morpholinoethylthio)-1H-pyrazolo[3,4-d]pyrimidin-4-amine level at 50 mg/kg, ip administered via bolus dose using DMSO formulation measured at 1 to 24 hrs post dose by UV/LC-MS analysis; format: ADME, organism-based; design: dose 50 mg/kg, time infinity, route intraperitoneal; details: in vivo
Liver = experiment: Drug uptake in BALB/C mouse liver at 50 mg/kg, ip via bolus administration measured at 24 hrs post dose by UV/LC-MS; format: ADME, organism-based; details: in vivo
[26] = Metabolic stability in human liver microsomes assessed as parent compound remaining at 50 uM after 1 hr in presence of NADPH regenerating system by UV/LC-MS analysis; format: ADME, microsome; details: read-out: Stability
Mus musculus [27] = experiment: Plasma clearance in BALB/C mouse assessed as N-(3-bromophenyl)-1-(2-chloro-2-phenylethyl)-6-(2-morpholinoethylthio)-1H-pyrazolo[3,4-d]pyrimidin-4-amine level at 50 mg/kg administered through oral gavage as methylcellulose formulation measured at 1 to 24 hrs post dose by UV/LC-MS analysis; format: ADME, organism-based; details: in vivo
Mus musculus [28] = experiment: AUC (0 to 24 hrs) in BALB/C mouse assessed as N-(3-bromophenyl)-1-(2-chloro-2-phenylethyl)-6-(2-morpholinoethylthio)-1H-pyrazolo[3,4-d]pyrimidin-4-amine level at 50 mg/kg administered through oral gavage as methylcellulose formulation measured at 1 to 24 hrs post dose by UV/LC-MS analysis; format: ADME, organism-based; design: dose 50 mg/kg, time < 24 hr, route oral; details: in vivo
[29] = Plasma concentration in BALB/C mouse at 50 mg/kg, ip via bolus administration measured at 24 hrs post dose by UV/LC-MS; format: ADME, organism-based
cells [30] = details: Homo sapiens, U-87 MG, 72 h
Description: Cytotoxicity against human U87 cells assessed as reduction in cell viability after 72 hrs by trypan blue assay

[31] = Plasma clearance in BALB/C mouse at 50 mg/kg, ip administered via bolus dose using DMSO formulation measured at 1 to 24 hrs post dose by UV/LC-MS analysis; format: ADME, organism-based

With `ClC(Cn1ncc2c(Nc3cccc(Br)c3)nc(SCCN3CCOCC3)nc21)c1ccccc1` (centres undefined) the MST [1] was 44 days, the MRT [2] was 19.1 h and the MRT (Mus musculus [3]) was 11.97 h. It also gave a solubility at 24 h (physchem [4]) of 3.7 µg/mL (≈ 6.45 µM), an AUC (Mus musculus [5]) of 43.53 µM·h and a half-life [6] of 14.8 h. It also gave an MRT (Mus musculus [7]) of 46.62 h, an AUC(0-t) at 24 h [8] of 56.1 µM·h and a Papp at 5 h, 500 µM (physchem [9]) of 7.1 ×10⁻⁶ cm/s. It also gave a remaining at 1 h, 50 µM [10] of 89.2%, a Tmax [11] of 0.5 h and a Drug uptake (Kidney) of 3.6 nmol/g. For the same molecule, the Tmax (Mus musculus [12]) was 2 h, the Cmax (Mus musculus [13]) was 5.35 µM and the Cmax [14] was 6.83 µM. The t1/2 (Mus musculus [15]) was 33.3 h, the AUC(0-inf) [16] was 79.7 µM·h and the Drug uptake [17] was 51.2 nmol/g. The pIC50 (cells [18]) was 5.17, the t1/2 (Mus musculus [19]) was 9.06 h and the Cmax (Mus musculus [20]) was 6.07 µM. For the same molecule, the AUC (Mus musculus [21]) was 55.14 µM·h, the Drug uptake (Brain) was 2.7 nmol/g and the CL (Mus musculus [22]) was 0.27 mL/min. It also gave a pIC50 (cells [23]) of 4.76, a Tmax (Mus musculus [24]) of 1.5 h and an AUC (Mus musculus [25]) of 135.11 µM·h. It also gave a Drug uptake (Liver) of 1.7 nmol/g, a remaining at 1 h, 50 µM [26] of 97.2% and a CL (Mus musculus [27]) of 1.14 mL/min. For the same molecule, the AUC (Mus musculus [28]) was 36.69 µM·h, the concentration at 24 h [29] was 2.6 µM and the pIC50 (cells [30]) was 5.72. The CL/F [31] was 0.46 mL/min.
